3 compounds from patent US10421782B2, “Cyclic cationic peptides with antimicrobial activity” (I.C.F. S.R.L., priority 2012, dated 2019) can be followed below.

The test system of one data set is E. coli ML-35pYC. As to the kind of experiment: Membrane permeabilization assay (CENTA / ONPG kinetics). Format: cell-based, Escherichia coli. The conditions noted are these: peptide 12.5 μg/ml, logistic 4-parameter fit, read up to 240 min; for Inflexion point CENTA: CENTA substrate (periplasmic beta-lactamase). The protocol:
The strain ML-35pYC of E. coli was used to assay the kinetics of membrane permeabilization performed by the peptides of the invention. This bacterial strain expresses resistance to ampicillin, constitutive expression of cytoplasmic beta-galactosidase, and is engineered with a plasmid for the synthesis of a periplasmic beta-lactamase. Sixty microliters (60 μl) of bacterial suspension of strain ML-35pYC of E. coli were added to 60 μl of a 15 mM solution of ONPG or 1.5 mM of CENTA in phosphate buffer. Subsequently, 120 μl of the test peptides were added to obtain a final concentration of 12.5 μg/ml. The kinetics of the reaction was evaluated by recording the value of absorbance at […] and 405 nm, for ONPG and CENTA respectively, every 10 min up to a maximum of 240 min.
By “fitting” the experimental points with the logistic 4-parameter curve, it was possible to determine the inflexion point, that is the point where the curve changes direction, relative to the 3 test peptides. No inflexion point was observed during the assay with CENTA (inflexion point higher than 500 min).

In data set [1] the test system is Escherichia coli ATCC 25922. Format: cell-based. Particulars: for LD90 E. coli ATCC 25922: 2 h contact at 37° C., CFU count after 24 h. The protocol: (§1) For each bacterial strain, 3-5 morphologically similar colonies were drawn from fresh cultures, inoculated in Brain Hearth Infusion broth liquid medium and incubated at the temperature of 37° C. under shaking at 225 r.p.m. for 3-4 h. Subsequently, the bacterial suspension was centrifuged at 1000 g for 20 min and the thus obtained pellet was resuspended in phosphate buffer 10 mM. Turbidity was measured in a spectrophotometer with absorbance at 600 nm, equivalent in the range 0.08-0.13 to a concentration of about 10^8 CFU/ml. The bacterial suspension was diluted 1:100 in phosphate buffer 10 mM, and within 30 min 50 microliters of such bacterial suspension (10^6 CFU/ml) were inoculated in each well of the microtiter plate, to obtain a final bacterial concentration of about 5×10^5 CFU/ml.
(§2) Several peptides were tested for their ability to inhibit bacterial growth in liquid culture. Fifty microliters of peptide at a concentration comprised between about 0.2 mM and 50 mM were added in 96-well U-bottom plates containing liquid growth medium and one of the following bacteria: Escherichia coli ATCC 25922, P. aeruginosa ATCC 27853, Stenotrophomonas maltophilia ATCC 13637. After 2 hour incubation at 37° C., bacteria were transferred on a solid medium. As a growth control, bacterial cultures were cultured in the absence of peptides.
(§3) The bacterial suspension was put in contact for two hours with different concentrations of the peptide at the temperature of 37° C. After incubation, 20 μl were drawn from the wells of each dilution and seeded on solid medium, agar McConkey. The inoculum was evenly distributed on the agarized medium by means of a sterile disposable loop. After incubation for 24 h at the temperature of 37° C., counting of the bacterial colonies (CFU) was performed.

The subject of data set [2] is Pseudomonas aeruginosa ATCC 27853. Format: cell-based. Particulars: for LD90 P. aeruginosa ATCC 27853: 2 h contact at 37° C., CFU count after 24 h. The protocol: as §1, §2, §3
Data set [3] has as its system Stenotrophomonas maltophilia ATCC 13637. As to the kind of experiment: Broth-microdilution test and subsequent plating on agar, Gram-negative bacteria. Format: cell-based. Particulars: 2 h contact at 37° C., CFU count after 24 h. As to the method:
as §1, §2, §3
On the technique in general: Dilution methods test growth across graded concentrations, often in twofold steps.

Another data set relates to S. aureus ATCC 25923. Nature of the data set: Broth-microdilution test and subsequent plating on agar, Gram-positive bacteria. Format: cell-based, Staphylococcus aureus. Particulars: meticillin-sensitive, 2 h contact at 37° C., CFU count after 24 h. As to the method:
as §1, with “30 min,” for “30 min”
(§4) Several synthetic peptides were tested for their ability to inhibit bacterial growth. Fifty microliters of peptide at a concentration comprised between about 0.2 mM and about 50 mM were added to 96-well U-bottom plates containing phosphate buffer and one of the following bacteria: S. aureus ATCC 25923, meticillin-resistant S. aureus ATCC 43300. After 2 hour incubation at 37° C., bacteria were transferred on a solid medium. As a control, the bacterial cultures were cultured in the absence of peptide.
(§5) The bacterial suspension was put in contact for two hours with different concentrations of the peptide at the temperature of 37° C. After incubation, 20 μl were drawn from the wells of each dilution and seeded on solid medium, Columbia agar supplemented with 5% bovine red blood cells for Gram-positive bacteria. The inoculum was evenly distributed on the agarized medium by means of a sterile disposable loop. After incubation for 24 hours at the temperature of 37° C., counting of the bacterial colonies (CFU) was performed.

The test system of data set [4] is meticillin-resistant S. aureus ATCC 43300. The description is as above. Format: cell-based, Staphylococcus aureus. Particulars: 2 h contact at 37° C., CFU count after 24 h. The protocol: as §1, with “30 min,” for “30 min”
as §4, §5

The subject of data set [5] is Candida albicans ATCC 10231. As to the kind of experiment: Broth-microdilution test and subsequent plating on agar, fungi (yeasts). Format: cell-based. Particulars: 2 h contact at 37° C., CFU count on agar Sabouraud. As to the method:
(§6) The inoculum was set up by culturing Candida albicans ATCC 10231 and Malassezia pachydermatis ATCC 14522 in Czapek-Dox broth medium (DIFCO) for 48-72 h. On the assay day, the fungal culture was centrifuged at 1700×g for 15 min, the pellet was resuspended in phosphate buffer and submitted to shaking by the use of an electric vortex to disperse the fungal cell aggregates. The suspension was diluted until an optical density equal to an opacity of 0.5 on the McFarland turbidimetric scale was reached, which contains approximately 1-5×10^6 cell/ml (Branda J. A., Krantz A. Effectc of yeast on automated cell counting. Am J Clin Pathol., 2006:126, 248-254).
(§7) The peptides were tested for their ability to inhibit fungal growth. Fifty microliters of peptide at a concentration comprised between about 0.2 mM and about 50 mM were added in 96-well U-bottom plates containing phosphate buffer and one of the following fungi: Candida albicans ATCC 10231 and Malassezia pachydermatis ATCC 14522. After 2 h incubation at 37° C., fungi were transferred on the solid medium agar Sabouraud. As a control, fungal cultures were cultured in the absence of peptide.
(§8) The fungal suspension was put in contact for two hours with different concentrations of the peptide at the temperature of 37° C. After incubation, 20 μl were drawn from the wells of each dilution and seeded on the solid medium agar Sabouraud. The inoculum was evenly distributed on the agarized medium by means of a sterile disposable loop. After incubation for 24 h at the temperature of 37° C., counting of the fungal colonies (CFU) was performed.

Data set [6] deals with Malassezia pachydermatis ATCC 14522. Described as above. Format: cell-based. The conditions noted are these: 2 h contact at 37° C., CFU count on agar Sabouraud. As to the method:
as §6, §7, §8

A further data set deals with Jurkat cells. As to the kind of experiment: Cytotoxicity of peptides against Jurkat cells (Trypan Blue). Format: cell-based. Particulars: 20 μM. The protocol:
Cytotoxicity of the peptides against T lymphocytes, for example Jurkat cells, was determined seeding the cells at a density of about 5*10^5 cells/ml in the presence and in the absence of peptides and incubating overnight at 37° C. in thermostat under CO2. As a negative cytotoxicity control, a medium lacking the test peptide was used, while as a positive cytotoxicity control, a medium containing 0.2% Triton X-100 was used, to completely lyse the cells. The cell viability was subsequently determined by adding 20 μl of Trypan Blue in each well, and by incubation of the cells for additional 5 min a 37° C. MCC10 value was calculated as the minimum peptide concentration necessary to induce 10% of cytotoxicity.

Each structure is given as a SMILES string. Values after ≈ are worked out from the molar mass of the structure shown. Values joined by “and” are separate entries in the source; they are usually repeats but may differ in a detail not shown here. Equal values may be shown once. Read-outs that look alike come from different tables or passages of the source. Where a SMILES comes first, the peptide text is derived from it. Bridges are numbered along the chain shown (N, C = ends).

For `CC(C)C[C@@H]1NC(=O)CNC(=O)[C@H](CCCNC(=N)N)NC(=O)[C@H](C(C)C)NC(=O)[C@H](CCCCN)NC(=O)[C@H](C(C)C)NC(=O)[C@H](CC(C)C)NC(=O)[C@H](C)NC(=O)[C@@H](NC(=O)CNC(=O)[C@@H](N)CCCCN)CSSC[C@@H](C(=O)N[C@@H](CCCCN)C(=O)O)NC(=O)[C@H](C(C)C)NC(=O)[C@H](CCCCN)NC(=O)[C@H](CC(C)C)NC(=O)[C@H]([C@@H](C)O)NC1=O` (relative stereo) [Peptide P72, LYS*GLY*CYS*ALA*LEU*VAL*LYS*VAL*ARG*GLY*LEU*THR*LEU*LYS*VAL*CYS*LYS], in the data set on E. coli ML-35pYC, the “Inflexion point CENTA” value is on record as >500 min. Further, in the data set with E. coli ML-35pYC (ONPG substrate (cytoplasmic beta-galactosidase)), the “Inflexion point ONPG” value is on record as 7.86 min. The “LD90 E. coli ATCC 25922” value in [1] was 0.86 µM; in data set [1] (listed as 72) it was 1.69 μg/ml and 0.86 μM. Besides, the “MBC E. coli ATCC 25922” value in data set [1] came to 9.68 mg/L (≈ 5.34 µM). Besides, the “LD90 P. aeruginosa ATCC 27853” value in data set [2] was 0.87 µM; in [2] (listed as 72), 0.87 μM and 1.61 μg/ml. Moreover, the “MBC P. aeruginosa ATCC 27853” value in [2] worked out at 2.84 mg/L (≈ 1.57 µM). For the same compound, the “LD90 S. maltophilia ATCC 13637” value is 1.88 µM in data set [3]; 1.88 μM and 3.42 μg/ml in [3] (listed as 72). Moreover, the “LD90 S. aureus ATCC 25923” value is 3.39 µM with S. aureus ATCC 25923; 3.39 μM and 6.16 μg/ml with S. aureus ATCC 25923 (listed as 72). Further, the “LD90 MRSA ATCC 43300” value is 0.90 µM in [4]; 0.90 μM and 1.65 μg/ml in data set [4] (listed as 72). Besides, the “LD90 Candida albicans” value in [5] was 1.03 µM; in data set [5] (listed as 72), 1.03 μM and 1.87 μg/ml. In addition, the “LD90 Malassezia pachydermatis” value is 0.68 µM in [6]; 0.68 μM and 1.24 μg/ml in data set [6] (listed as 72).
With `CC[C@H](C)[C@@H]1NC(=O)[C@H](Cc2ccccc2)NC(=O)[C@H](CCCCN)NC(=O)[C@H](C(C)C)NC(=O)CNC(=O)[C@H](CCCNC(=N)N)NC(=O)[C@H](Cc2c[nH]c3ccccc23)NC(=O)[C@H](CCC(N)=O)NC(=O)[C@H](Cc2c[nH]c3ccccc23)NC(=O)[C@H](CCCCN)NC(=O)[C@H](CCCNC(=N)N)NC(=O)[C@@H](NC(=O)[C@H](Cc2c[nH]c3ccccc23)NC(=O)[C@@H](N)CCCCN)CSSC[C@@H](C(=O)N[C@H](C(=O)O)C(C)C)NC(=O)[C@H](CCCCN)NC1=O` (relative stereo) [Peptide P126, LYS*TRP*CYS*ARG*LYS*TRP*GLN*TRP*ARG*GLY*VAL*LYS*PHE*ILE*LYS*CYS*VAL], the “Inflexion point CENTA” value with E. coli ML-35pYC is reported as >500 min. The “LD90 E. coli ATCC 25922” value in data set [1] is 0.91 µM; in data set [1] (listed as 126), 1.86 μg/ml and 0.91 μM. Also, the “MBC E. coli ATCC 25922” value in data set [1] turned out to be 12.5 mg/L (≈ 5.56 µM). Also, the “LD90 P. aeruginosa ATCC 27853” value in [2] was 0.20 µM; in data set [2] (listed as 126), 0.20 μM and 0.4 μg/ml. The “MBC P. aeruginosa ATCC 27853” value in [2] was 4.53 mg/L (≈ 2.01 µM). Moreover, in [3], the “LD90 S. maltophilia ATCC 13637” value was found to be 6.65 µM. For the same compound, the “LD90 S. aureus ATCC 25923” value in the data set with S. aureus ATCC 25923 is 4.68 µM; in the data set on S. aureus ATCC 25923 (listed as 126) it was 4.68 μM and 9.54 μg/ml. Also, the “LD90 MRSA ATCC 43300” value in data set [4] is >70 µM; in data set [4] (listed as 126), “about 71 μM and ~100 μg/ml”. For the same compound, the “LD90 Candida albicans” value in data set [5] is 1.98 µM; in [5] (listed as 126) it was “about 2 μM”. In addition, in data set [6], the “LD90 Malassezia pachydermatis” value was 0.75 µM.
Consider `CC[C@H](C)[C@@H]1NC(=O)CNC(=O)[C@H](CCCNC(=N)N)NC(=O)[C@H](Cc2ccc(O)cc2)NC(=O)[C@@H]2CSSC[C@H](NC1=O)C(=O)N[C@@H](Cc1ccc(O)cc1)C(=O)N[C@@H](CCCNC(=N)N)C(=O)N[C@@H](CCCNC(=N)N)C(=O)N[C@H](C(=O)N[C@@H](CCCNC(=N)N)C(N)=O)CSSC[C@H](NC(=O)[C@H](Cc1c[nH]c3ccccc13)NC(=O)[C@@H](N)CCCCN)C(=O)N[C@@H](Cc1ccccc1)C(=O)N[C@@H](CCCNC(=N)N)C(=O)N[C@@H](C(C)C)C(=O)N2` [tachyplesin-1] (H-KWCFRVCYRGICYRRCR-NH2; disulfide 3-16, 7-12), for which the “death of the cells (Jurkat)” value in the data set on Jurkat cells came out at 10%.
